Measured values from ChEMBL document CHEMBL4414609, “High-Affinity Alkynyl Bisubstrate Inhibitors of Nicotinamide N-Methyltransferase (NNMT)” (J Med Chem, 2019).

Legend:
[1] = molecular target: T1, Nicotinamide N-methyltransferase (Homo sapiens, UniProt P40261); experiment: Inhibition of N-terminal His6-tagged wild type human NNMT expressed in Escherichia coli NiCo21(DE3) assessed as reduction in 1-methylquinolinium level using quinoline as substrate in presence of SAM and measured every 27 seconds for 5.5 mins by fluorescence-based assay; settings: read-out: pKi (converted)
T1 sequence (P40261 whole entry): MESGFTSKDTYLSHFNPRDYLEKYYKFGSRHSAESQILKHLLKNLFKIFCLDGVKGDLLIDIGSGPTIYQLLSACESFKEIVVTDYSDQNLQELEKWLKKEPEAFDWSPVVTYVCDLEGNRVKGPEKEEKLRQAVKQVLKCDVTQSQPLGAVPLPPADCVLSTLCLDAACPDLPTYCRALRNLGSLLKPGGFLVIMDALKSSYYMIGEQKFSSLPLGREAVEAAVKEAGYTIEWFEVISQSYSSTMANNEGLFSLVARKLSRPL

[2] = tested on: U2OS; experiment: Cytotoxicity against human U2OS cells at 100 uM after 48 hrs by CellTiter-Glo luminescent cell viability; assay type: cell-based
[3] = Permeability across apical to basolateral side in human Caco2 cells after 60 mins by HPLC-MS/MS analysis; assay type: ADME, cell-based; settings: caco-2, 1 h
[4] = molecular target: T2, Nicotinamide N-methyltransferase (Homo sapiens) (UniProt P40261); settings: K562, Lysate
T2 sequence (whole entry): T1 sequence (P40261 whole entry)

## Nc1ncnc2c1ncn2[C@@H]1O[C@H](C[C@@H](C#Cc2ccccc2)CC[C@H](N)C(=O)O)[C@@H](O)[C@H]1O
[1]
  Ki: 12600 nM

## NC(=O)c1cccc(C#C[C@@H](CCC[C@H](N)C(=O)O)C[C@H]2O[C@@H](n3cnc4c(N)ncnc43)[C@H](O)[C@@H]2O)c1
[1]
  Ki: 0.24 nM

## NC(=O)c1cc(C#C[C@@H](CC[C@H](N)C(=O)O)C[C@H]2O[C@@H](n3cnc4c(N)ncnc43)[C@H](O)[C@@H]2O)ccn1
[1]
  Ki: 8.91 nM

## Nc1ncnc2c1ncn2[C@@H]1O[C@H](C[C@@H](C#Cc2cccc(S(N)(=O)=O)c2)CC[C@H](N)C(=O)O)[C@@H](O)[C@H]1O
[1]
  Ki: 195 nM

## Nc1ncnc2c1ncn2[C@@H]1O[C@H](CCCC[C@H](N)C(=O)O)[C@@H](O)[C@H]1O
[1]
  Ki: 21400 nM

## NC(=O)c1cc(C#C[C@@H](CC[C@H](N)C(=O)O)C[C@H]2O[C@@H](n3cnc4c(N)ncnc43)[C@H](O)[C@@H]2O)ccc1C(F)(F)F
[1]
  Ki: 2.63 nM

## COC(=O)[C@@H](N)CC[C@H](C#Cc1cccc(C(N)=O)c1)C[C@H]1O[C@@H](n2cnc3c(N)ncnc32)[C@H](O)[C@@H]1O
[2]
  Activity: Non-Toxic
[3]
  permeability: Impermeable
[1]
  Ki: 437 nM

## NC(=O)c1cccc(CC[C@H](CC[C@H](N)C(=O)O)C[C@H]2O[C@@H](n3cnc4c(N)ncnc43)[C@H](O)[C@@H]2O)c1
[1]
  Ki: 107 nM

## NC(=O)c1cc(C#C[C@@H](CC[C@H](N)C(=O)O)C[C@H]2O[C@@H](n3cnc4c(N)ncnc43)[C@H](O)[C@@H]2O)ccc1Cl
[1]
  Ki: 0.191 nM

## NC(=O)c1ccccc1C#C[C@@H](CC[C@H](N)C(=O)O)C[C@H]1O[C@@H](n2cnc3c(N)ncnc32)[C@H](O)[C@@H]1O
[1]
  Ki: 19500 nM

## Nc1ncnc2c1ncn2[C@@H]1O[C@H](C[C@@H](C#Cc2ccc3c(c2)C(=O)NC3)CC[C@H](N)C(=O)O)[C@@H](O)[C@H]1O
[1]
  Ki: 1860 nM

## NC(=O)c1cncc(C#C[C@@H](CC[C@H](N)C(=O)O)C[C@H]2O[C@@H](n3cnc4c(N)ncnc43)[C@H](O)[C@@H]2O)c1
[1]
  Ki: 5.01 nM

## NC(=O)c1cccc(C#C[C@@H](CCCC(=O)O)C[C@H]2O[C@@H](n3cnc4c(N)ncnc43)[C@H](O)[C@@H]2O)c1
[1]
  Ki: 22400 nM

## NC(=O)c1cccc(C#C[C@H](CC[C@H](N)C(=O)O)C[C@H]2O[C@@H](n3cnc4c(N)ncnc43)[C@H](O)[C@@H]2O)c1
[1]
  Ki: 123 nM

## NC(=O)c1cccc(C#C[C@@H]2C[C@H]2[C@H]2O[C@@H](n3cnc4c(N)ncnc43)[C@H](O)[C@@H]2O)c1
[1]
  Ki: 3890 nM

## NC(=O)c1ccnc(C#C[C@@H](CC[C@H](N)C(=O)O)C[C@H]2O[C@@H](n3cnc4c(N)ncnc43)[C@H](O)[C@@H]2O)c1
[1]
  Ki: 35.5 nM

## NC(=O)c1cccc(CCN(CCC[C@H](N)C(=O)O)C[C@H]2O[C@@H](n3cnc4c(N)ncnc43)[C@H](O)[C@@H]2O)c1
[1]
  Ki: 89.1 nM

## Nc1ncnc2c1ncn2[C@@H]1O[C@H](C[C@@H](C#Cc2ccc3c(c2)C(=O)NCC3)CC[C@H](N)C(=O)O)[C@@H](O)[C@H]1O
[1]
  Ki: 55 nM

## NC(=O)c1cc(C#C[C@@H](CC[C@H](N)C(=O)O)C[C@H]2O[C@@H](n3cnc4c(N)ncnc43)[C@H](O)[C@@H]2O)ccc1F
[1]
  Ki: 1.86 nM

## NC(=O)NCC[C@H](C#Cc1cccc(C(N)=O)c1)C[C@H]1O[C@@H](n2cnc3c(N)ncnc32)[C@H](O)[C@@H]1O
[4]
  ΔTm: 5 °C
[2]
  Activity: Non-Toxic
[3]
  permeability: Impermeable
[1]
  Ki: 75.9 nM

## NC(=O)c1cccc(CC[C@@H](CC[C@H](N)C(=O)O)C[C@H]2O[C@@H](n3cnc4c(N)ncnc43)[C@H](O)[C@@H]2O)c1
[1]
  Ki: 4.68 nM

## NC(=O)c1ccc(C#C[C@@H](CC[C@H](N)C(=O)O)C[C@H]2O[C@@H](n3cnc4c(N)ncnc43)[C@H](O)[C@@H]2O)cc1
[1]
  Ki: 5750 nM

## C#C[C@@H](CC[C@H](N)C(=O)O)C[C@H]1O[C@@H](n2cnc3c(N)ncnc32)[C@H](O)[C@@H]1O
[1]
  Ki: 47900 nM

## NC(=O)c1cccc(C#C[C@@H](CC[C@H](N)C(=O)O)C[C@H]2O[C@@H](n3cnc4c(N)ncnc43)[C@H](O)[C@@H]2O)n1
[1]
  Ki: 6.76 nM

## Nc1cccc2c(C#C[C@@H](CC[C@H](N)C(=O)O)C[C@H]3O[C@@H](n4cnc5c(N)ncnc54)[C@H](O)[C@@H]3O)cccc12
[1]
  Ki: 3720 nM

## NC(=O)c1cccc(C#CCC[C@H]2O[C@@H](n3cnc4c(N)ncnc43)[C@H](O)[C@@H]2O)c1
[1]
  Ki: 263 nM

## NC(=O)c1cc(C#C[C@@H](CC[C@H](N)C(=O)O)C[C@H]2O[C@@H](n3cnc4c(N)ncnc43)[C@H](O)[C@@H]2O)c2c(c1)OCO2
[1]
  Ki: 32.4 nM

## NC(=O)c1cccc(C#C[C@@H](CC[C@H](N)C(N)=O)C[C@H]2O[C@@H](n3cnc4c(N)ncnc43)[C@H](O)[C@@H]2O)c1
[2]
  Activity: Non-Toxic
[3]
  permeability: Impermeable
[1]
  Ki: 17 nM

## CO[C@@H]1O[C@H](C[C@@H](C#Cc2cccc(C(N)=O)c2)CC[C@H](N)C(=O)O)[C@@H](O)[C@H]1O
[1]
  Ki: 77600 nM

## NCCC[C@H](C#Cc1cccc(C(N)=O)c1)C[C@H]1O[C@@H](n2cnc3c(N)ncnc32)[C@H](O)[C@@H]1O
[2]
  Activity: Non-Toxic
[3]
  permeability: 1.3 ×10⁻⁶ cm/s
[1]
  Ki: 57.5 nM

## NC(=O)CCC[C@H](C#Cc1cccc(C(N)=O)c1)C[C@H]1O[C@@H](n2cnc3c(N)ncnc32)[C@H](O)[C@@H]1O
[1]
  Ki: 1050 nM

## Cc1ccc(C#C[C@@H](CC[C@H](N)C(=O)O)C[C@H]2O[C@@H](n3cnc4c(N)ncnc43)[C@H](O)[C@@H]2O)cc1C(N)=O
[1]
  Ki: 3.39 nM

## NC(=O)c1cccc(CCN(CC[C@H](N)C(=O)O)C[C@H]2O[C@@H](n3cnc4c(N)ncnc43)[C@H](O)[C@@H]2O)c1
[1]
  Ki: 912 nM
